Data published in patent publication US20260355163A1, “TREATMENT OF FASCIOLOSIS” (INTERVET INC., priority 2022, published 2026).
“Also recorded” adds a separate entry of the source. Like-named read-outs stand apart in the source and are kept apart here.

Legend:
[1] = tested on: Fasciola hepatica Newly Excysted Juveniles (NEJs); assay: Propidium Iodide (PI) uptake by Fasciola hepatica NEJs in co-culture with compound
Description: (§1) The viability detection of Fasciola hepatica NEJs is based on qualitative microscopic evaluation of motility and phenotype and additionally measuring propidium iodide to make use of the differential uptake of fluorophores (such as propidium iodide) by living organisms.
(§2) NEJs were prepared according to Edwards et al.. Approximately 12 NEJs/compound were cultivated. NEJ/compound co-cultures were placed at 37 °C in a humidified atmosphere containing 5% CO2. NEJ/compound co-cultures were incubated for a total of 72 hrs. At 24h, an assessment of the gross phenotype was made for all NEJ/compound co-cultures and bright field images were captured. At 72 h both phenotype and motility were quantified in comparison to live DMSO controls based on a microscopic scoring method detailed in [1] as well as summarised in Table 1 below.
Propidium Iodide (PI) was then added to the NEJ/compound co-cultures (to a final concentration of […]) and these co-cultures were imaged under both Bright field and Texas Red settings.

[2] = tested on: Fasciola hepatica Newly Excysted Juveniles (NEJs); assay: whole organism screen of Fasciola hepatica NEJs: microscopic scoring of phenotype and motility (viability)
Description: The effect of test compounds in a whole organism screen of Fasciola hepatica Newly Excysted Juveniles (NEJs) was investigated along with DMSO (− control), triclabendazole (10 μM, + control) and media) and their anti-flukicidal activity was assessed at both 24 and 72 hours.
as §1, §2

[3] = tested on: common liver fluke (Fasciola hepatica); conditions: cited from earlier work; for effectiveness against liver fluke stages: mature flukes and immature stages (early immature 1 to 6 weeks old, immature 6 to 9 weeks old)
[4] = 72 h, in comparison to live DMSO controls, triclabendazole + control at 10 μM, concentration of test compounds not given
[5] = overall conclusion from viability, phenotype/motility and PI

Row | Structure (SMILES) | effectiveness against liver fluke stages [3] | Score (mean) motility 1 to 5 (highest) [2, 4] | Score (mean) phenotype 1 to 6 (highest) [2, 4] | active against Fasciola hepatica NEJs during the viability assessment ([2]; after 24 hours) | phenotype change and impaired motility significantly different to DMSO ([2]; after 72 hours) | significant activity against juvenile stages of Fasciola hepatica [2, 5] | also measured
1 | Cc1cc(C2=NO[C@@](c3cc(Cl)c(Cl)c(Cl)c3)(C(F)(F)F)C2)sc1C(=O)NCC(=O)NCC(F)(F)F (stereo in doubt) [Compound 4, 3-methyl-N-(2-oxo-2-((2,2,2-trifluoroethyl)amino)ethyl)-5-[5-(3,4,5-trichlorophenyl)-5-(trifluoromethyl)-4,5-dihydroisoxazol-3-yl]thiophene-2-carboxamide] |  |  |  |  |  |  | Propidium Iodide positivity [1]: > 90%; Score (mean) motility 1 to 5 (highest) [2]: 5.0; Score (mean) phenotype 1 to 6 (highest) [2]: 5.7; active against Fasciola hepatica NEJs during the viability assessment [2]: active; phenotype change and impaired motility significantly different to DMSO [2]: both a phenotype change and impaired motility significantly different to DMSO; significant activity against juvenile stages of Fasciola hepatica [2]: significant activity
2 | Cc1cc(C(C#N)c2ccc(Cl)cc2)c(Cl)cc1NC(=O)c1cc(I)cc(I)c1O (centres unmarked) [closantel] | only effective against the mature flukes and not against the immature stages |  |  |  |  |  | effectiveness against 3-8 weeks old flukes ([3]; 3-8 weeks old flukes): partially effective; effectiveness against mature flukes ([3]; mature flukes): fully effective
3 | Cn1nc(C(F)(F)C(F)(F)F)c(C(F)(F)F)c1-n1cc(-c2ccc(Cl)c(C(=O)NC3(C#N)CC3)c2)cn1 [Compound 10, 2-chloro-N-(1-cyanocyclopropyl)-5-[1-[2-methyl-5-(1,1,2,2,2-pentafluoroethyl)-4-(trifluoromethyl)pyrazol-3-yl]pyrazol-4-yl]benzamide] |  | 4.8 | 3.8 | active | both a phenotype change and impaired motility significantly different to DMSO |  | 
4 | Nc1cc(C(Cl)=C(Cl)Cl)c(S(N)(=O)=O)cc1S(N)(=O)=O [clorsulon] | effective only against mature flukes |  |  |  |  |  | 
5 | CS(=O)(=O)CC(=O)N1CC2(C1)OCc1cc(C3=NO[C@@](c4cc(Cl)c(F)c(Cl)c4)(C(F)(F)F)C3)ccc12 (stereo in doubt) [Compound 5, 1-(5′-(5-(3,5-dichloro-4-fluorophenyl)-5-(trifluoromethyl)-4,5-dihydroisoxazol-3-yl)-3′H-spiro[azetidine-3,1′-isobenzofuran]-1-yl)-2-(methylsulfonyl)ethan-1-one] |  | 5.0 | 5.7 | active | both a phenotype change and impaired motility significantly different to DMSO | significant activity | 
6 | CCCSc1ccc2nc(NC(=O)OC)[nH]c2c1 [albendazole] | only effective against the mature flukes and not against the immature stages; also recorded: effective only against mature flukes |  |  |  |  |  | 
7 | Cc1cc(C2=NO[C@@](c3cc(Cl)cc(Cl)c3)(C(F)(F)F)C2)ccc1C(=O)NCC(=O)NCC(F)(F)F [Compound 2] |  |  |  |  |  |  | Propidium Iodide positivity [1]: > 90%; Score (mean) motility 1 to 5 (highest) [2]: 5.0; Score (mean) phenotype 1 to 6 (highest) [2]: 5.8; active against Fasciola hepatica NEJs during the viability assessment [2]: active; phenotype change and impaired motility significantly different to DMSO [2]: both a phenotype change and impaired motility significantly different to DMSO; significant activity against juvenile stages of Fasciola hepatica [2]: significant activity
8 | C#CCNC(=O)CNC(=O)c1sc(C2=NO[C@@](c3cc(Cl)c(Cl)c(Cl)c3)(C(F)(F)F)C2)cc1C [Compound 6] |  | 5.0 | 5.6 | active | both a phenotype change and impaired motility significantly different to DMSO | significant activity | 
9 | Cc1cc(C2=NSC(c3cc(Cl)cc(Cl)c3)(C(F)(F)F)C2)ccc1C(=O)NCC(=O)NCC(F)(F)F (centres unmarked) [Compound 9] |  | 5.0 | 5.7 | active | both a phenotype change and impaired motility significantly different to DMSO | significant activity | 
10 | N#Cc1cc(I)c(O)c([N+](=O)[O-])c1 [nitroxynil] | only effective against the mature flukes and not against the immature stages; also recorded: effective against fluke from 8 weeks post infection |  |  |  |  |  | 
11 | O=C(Nc1cc(Cl)cc(Cl)c1O)c1c(O)c(Cl)cc(Cl)c1Cl [oxyclozanide] | only effective against the mature flukes and not against the immature stages; also recorded: effective only against mature flukes |  |  |  |  |  | 
12 | C#CCNC(=O)CNC(=O)c1sc(C2=NO[C@](c3cc(Cl)c(Cl)c(Cl)c3)(C(F)(F)F)C2)c2c1CCCC2 [Compound 8] |  | 5.0 | 5.7 | active | both a phenotype change and impaired motility significantly different to DMSO | significant activity | 
13 | O=C(CNC(=O)c1ccc(C2=NOC(c3cc(Cl)cc(C(F)(F)F)c3)(C(F)(F)F)C2)c2ccccc12)NCC(F)(F)F (centres unmarked) [Compound 3, 4-[5-[3-chloro-5-(trifluoromethyl)phenyl]-4,5-dihydro-5-(trifluoromethyl)-3-isoxazolyl]-N-[2-oxo-2-[(2,2,2-trifluoroethyl)amino]ethyl]-1-naphthalene-carboxamide] |  | 5.0 | 5.7 | active | both a phenotype change and impaired motility significantly different to DMSO | significant activity | 
14 | CSc1nc2cc(Cl)c(Oc3cccc(Cl)c3Cl)cc2[nH]1 [Triclabendazole] | effective against mature stages of the common liver fluke (Fasciola hepatica) as well as all immature stages | 5.0 | 5.8 |  |  |  | effectiveness against early immature liver fluke larvae ([3]; early immature larvae (1 to 6 weeks old)): effective against all early immature liver fluke larvae
15 | C#CCNC(=O)CNC(=O)c1sc(C2=NO[C@@](c3cc(Cl)c(Cl)c(Cl)c3)(C(F)(F)F)C2)c2c1CCCC2 [Compound 7] |  | 4.8 | 5.7 | active | both a phenotype change and impaired motility significantly different to DMSO | significant activity | 
16 | Cc1cc(C2=NOC(c3cc(Cl)cc(Cl)c3)(C(F)(F)F)C2)ccc1C(=O)NCC(=O)NCC(F)(F)F (centres unmarked) [Compound 1, 4-[5-(3,5-dichlorophenyl)-5-trifluoromethyl-4,5-dihydroisoxazol-3-yl]-2-methyl-N-[(2,2,2-trifluoro-ethylcarbamoyl)-methyl]-benzamide] |  |  |  |  |  |  | Score (mean) motility 1 to 5 (highest) [2]: 5.0; Score (mean) phenotype 1 to 6 (highest) [2]: 5.5; active against Fasciola hepatica NEJs during the viability assessment [2]: active; phenotype change and impaired motility significantly different to DMSO [2]: both a phenotype change and impaired motility significantly different to DMSO; significant activity against juvenile stages of Fasciola hepatica [2]: significant activity
